Results on three molecules are retold here after US20150104430A1, “Methods and Compositions for Generating Pancreatic Progenitors and Functional Beta Cells from hPSCs” (University Health Network, priority 2012, published 2015).

The subject of assay [1] is human ES cell line: H9 (WA09). Description: Percentage of NKX6-1+ cells after stage 4 treatment of H9 (WA09)-derived endodermal cells. The note with it: day 13 of differentiation, treatment at stage 4. The format is cell-based.
Assay [2] relates to human fetal pancreatic cells. The note with it: Otonkoski et al., 1993; cited from earlier work.

Turning to EGF [EGF (E)], the “Percentage of NKX6-1+ cells” value in assay [1] was determined as 18.5%.
Take `NC(=O)c1cccnc1` [Nicotinamide (NA), Nicotinamide]: the “Percentage of NKX6-1+ cells” value in assay [1] is on record as 14.0%. For the same molecule, the “induction of endocrine differentiation” value in assay [2] is listed as “potent inducer of endocrine differentiation”.

B1: Noggin (protein, UniProt Q13253 28-232, looked up)
Noggin: QHYLHIRPAPSDNLPLVDLIEHPDPIFDPKEKDLNETLLRSLLGGHYDPGFMATSPPEDRPGGGGGAAGGAEDLAELDQLLRQRPSGAMPSEIKGLEFSEGLAQGKKQRLSKKLRRKLQMWLWSQTFCPVLYAWNDLGSRFWPRYVKVGSCFSKRSCSVPEGMVCKPSKSVHLTVLRWRCQRRGGQRCGWIPIQYPIISECKCSC
notes: bone morphogenetic protein antagonist having Gene ID: 9241
For the molecule B1, the “Percentage of NKX6-1+ cells” value in assay [1] was 21.7%.
